Reference: patent US9744212B2, “Galectin-3C combination therapy for human cancer” (Texas Tech University System, priority 2011, dated 2017)

Tests used:
HUVEC [1] = assay: Vascular endothelial cell viability assay; assay type: cell-based, human
Procedure: FIGS. 4A and 4B are graphs of the data from the vascular endothelial cell viability assay. […] The graphs show mean values and error bars represent 95% C.I. **=ANOVA Tukey's post test p<O.Ol. n.s.=not significant. […] Viability was measured as described for the U266 cells. […] Results obtained from the HUVEC viability studies that were run in triplicate are depicted in FIGS. 4A-B, and are presented as a percentage of control (untreated) cells.
EXAMPLE 3 illustrates Gal-3C inhibits proliferation of MM cells. Cell Proliferation (Viability) Assays. Cell proliferation was assessed with a ViaLight Plus Cell Proliferation and Cytotoxicity BioAssay Kit (Lonza, Walkersville, Md., USA) according to the directions of the manufacturer. In brief, myeloma cells were seeded (8,000 per well) in 50 μL of RPMI-1640 with 10% heat-inactivated FBS (growth medium) in 96-well plates. HUVEC cells were seeded (10,000/well) in 50 μl EGM-2 medium in 96-well plates. Gal-3C (2× concentration) in 50 μL of growth medium was added to triplicate wells and the plate kept at the CO2 incubator at 37° C. for 48 hour. For the ViaLight assay, 50 μL of lysis buffer was added to each well, the plate was incubated for 10 minutes, after which 50 μL of cell lysate from each well was transferred to a solid white Lumitrac-200 plate and 50 μL of reconstituted AMR Plus was added. Luminescence was measured with a 1-s integrated setting in a Berthold luminometer after 2 minutes. With Alamar Blue, 10 μL of reagent was added per well and the plate kept in the CO2 incubator for 4 hours. Fluorescence intensity was measured at 590-nm on a Polarstar Galaxy (BMG Labtech, Cary, N.C.) microplate reader. The blank (growth media with 10 μl Alamar Blue) was subtracted from the raw fluorescence to obtain adjusted fluorescence readings. Triplicate data points were analyzed and the data shown are representative of 3 or more studies.

HUVEC [2] = assay: HUVEC tubule formation assay on Matrigel with U266 conditioned media; assay type: cell-based, human; conditions: 20% V/V conditioned medium of U266 treated 48 h with 10 μg/mL Gal-3C, 5 nM Bor or both; 16-hour incubation
Procedure: HUVEC Tubule Formation Assay. A tubule formation assay was performed in vitro as described (86) to measure angiogenesis. Briefly, growth factor-reduced Matrigel (Becton Dickinson) was allowed to polymerize in the presence of 30 ng/mL recombinant basic fibroblastic growth factor (bFGF; R&D Systems) for 1 hour at 37° C.
FIG. 5 is an image of the results from the In vitro tubule formation assay having 6 regions. Serum-starved HUVEC were allowed to form tubules on a […]™ surface in the presence of VEGF (positive control), EMB-2 medium alone (negative control), or EBM-2 supplemented with 20% V/V U266 conditioned media (c.m.). […] To evaluate the effect of different treatments on the ability of U266 cells to induce angiogenesis, a […]™-based tubule formation assay was performed in the presence of U266 conditioned media as described for the chemotaxis assay. Serum-starved (5×103) HUVEC were seeded on the […]™ surface in 200-μL EBM-2 medium supplemented with 20% V/V conditioned medium. Pictures were taken after 16-hour incubation in 5% CO2 at 37° C. The assay was run in triplicate and representative images are depicted in FIG. 5. As a positive control, EBM-2 medium supplemented with 20 ng/mL VEGF was used.

VEGF = assay: ELISA of VEGF in U266 cell-conditioned medium; assay type: cell-based, human; conditions: 48-hour culture with 10 μg/mL Gal-3C, 5 nM Bor or both
Procedure: (§1) ELISA of VEGF and bFGF Levels. The levels of VEGF and bFGF were measured by direct ELISA as follows. Flat-bottom 96-well polycarbonate plates were coated at 4° C. with 50 μL/well cell culture supernatants diluted 1:25 in carbonate coating buffer (0.1 M NaHCO3, […]) at 4° C. overnight. Standard curves were obtained with purified recombinant human VEGF and bFGF (both from R&D Systems) serially diluted in coating buffer (10-fold serial dilutions from 1,000 to 0 ng/mL). After removing diluted supernatants or standards, and blocking with PBS supplemented with 1% W/V BSA for 1 hour at room temperature, plates were incubated for 1 hour at room temperature with mouse anti-human VEGF or rabbit anti-human bFGF primary antibodies (2 μg/mL in PBS, 50 μL/well Abeam, Mass., USA). Then, plates were washed twice with PBS with 0.025% V/V Tween-20 (300 μL/well) and incubated at room temperature with anti-mouse or anti-rabbit HRP-labeled secondary antibodies (0.2 μg/mL in PBS, 50 μL/well Abeam, Mass., USA) for 1 hour. The plates were washed thrice with PBS containing 0.025% V/V Tween-20 (300 μL/well), the TMB colorimetric substrate (Thermo Fisher Scientific, Waltham, Mass., USA) was added, and after 5 minutes the absorbance was measured (0.1 s) at 450 nm on a Victor 2 multimodal microplate reader (PerkinElmer, Billerica, Mass., USA). All samples were run in triplicates. […]

bFGF = assay: ELISA of bFGF in U266 cell-conditioned medium; assay type: cell-based, human; conditions: 48-hour culture with 10 μg/mL Gal-3C, 5 nM Bor or both
Procedure: as §1

AKT/IKK pathway = assay: Western blot of proteins in the NF-κB AKT/IKK pathway; assay type: cell-based; conditions: U266 and primary human MM cells; Gal-3C 10 μg/ml
Source text: EXAMPLE 4 indicates Gal-3C impairs NF-kB activation induced by Bonin U266 cells. Recently, it has been shown that the mechanism of action of Boris more complex than originally thought and can be differ depending on the cell type. […] This effect potentially reduces the therapeutic effect of Bonin MM, because NF-kB activation in plasma cells is associated with anti-apoptotic pathways (91). […] Comparison of NFkB expression by Western blot. […] Equal amounts of lysates of human primary MM and U266 cells and media were fractionated by SDS-PAGE and transferred to nitrocellulose membranes. Primary antibodies were visualized with HRP-coupled goat anti-rabbit or anti-mouse IgGs using an ATK/IKK kit (Cell Signaling Technology, Danvers, Mass.).
Upon IKK-mediated phosphorylation, IKBα dissociates from the NF-kB complex (p50 and p65 proteins). Free NF-kB is then phosphorylated on serine 529 of the p65 subunit and enters the nucleus where it regulates gene transcription.

[3] = test system: NF-kB (serine 529 phosphorylated p65 subunit); assay: Quantification of NF-kappaB activation by flow cytometry in U266 cells; assay type: cell-based, human; conditions: 48 hours
Procedure: Quantification of NF-kappaB Activation by Flow Cytometry. For measurement of NF-kB activation, 200×10^3 cells were fixed with 2% PFA in ice-cold PBS for 30 minutes. After removal of PFA, cells were permeabilized with 0.3% saponin in PBS on ice for 15 minutes, then washed and resuspended in 50 μL PBS supplemented with 1% BSA. PE-labeled anti-phosphorylated serine 529 p65 antibody (BD Biosciences, San Jose, Calif., USA) or isotype control (final dilution, 1:20) and allowed to incubate on ice in the dark for 30 minutes. Before flow-cytometric analysis cells were washed 3 times in 1-mL cold PBS with 1% BSA.
FIG. 8A is a dot-plot of NF-kB activation in U266 cells. After 48 hours in the presence of indicated treatments, the levels of active NF-KB (serine 529 phosphorylated p65 subunit) were evaluated in U266 cells by flow cytometry.

CC(C)C[C@H](NC(=O)[C@H](Cc1ccccc1)NC(=O)c1cnccn1)B(O)O [Bor, bortezomib, reference compound]
effect on HUVEC viability (HUVEC [1]; Bor at the concentration used in HUVEC assays, combined with different concentrations of Gal-3C): did not display any effect
effect on HUVEC viability (HUVEC [1]; at the concentration used in the chemotaxis and angiogenesis assays (Gal-3C 2 μg/ml, Bor 1 nM), 48 h): had an effect only at a concentration 5-fold higher
effect on HUVEC viability (HUVEC [1]; at the highest concentrations, 48 h): dramatic inhibition
potential of U266 cells for induction of angiogenesis (tubule formation) (HUVEC [2]): almost completely impaired
VEGF levels in U266 conditioned medium (VEGF): significantly reduced
bFGF levels in U266 conditioned medium (bFGF): significantly reduced
P-p65, P-Akt, P-IKKβ and P-IKKα (activation of the AKT/IKK pathway) (AKT/IKK pathway): increased
NF-kB activation (phosphorylated active form) [3]: activated NF-kB incrementally
